Molecular target: T1, isomerase (Mus musculus, UniProt Q91ZQ5)
T1 construct: The recovery of 11-cis-retinal after bleaching can be used to estimate the activity of isomerase in vivo; from tissue; host or cells: eye (RPE) of living CD-1 albino male mice
T1 sequence (Q91ZQ5 1-533): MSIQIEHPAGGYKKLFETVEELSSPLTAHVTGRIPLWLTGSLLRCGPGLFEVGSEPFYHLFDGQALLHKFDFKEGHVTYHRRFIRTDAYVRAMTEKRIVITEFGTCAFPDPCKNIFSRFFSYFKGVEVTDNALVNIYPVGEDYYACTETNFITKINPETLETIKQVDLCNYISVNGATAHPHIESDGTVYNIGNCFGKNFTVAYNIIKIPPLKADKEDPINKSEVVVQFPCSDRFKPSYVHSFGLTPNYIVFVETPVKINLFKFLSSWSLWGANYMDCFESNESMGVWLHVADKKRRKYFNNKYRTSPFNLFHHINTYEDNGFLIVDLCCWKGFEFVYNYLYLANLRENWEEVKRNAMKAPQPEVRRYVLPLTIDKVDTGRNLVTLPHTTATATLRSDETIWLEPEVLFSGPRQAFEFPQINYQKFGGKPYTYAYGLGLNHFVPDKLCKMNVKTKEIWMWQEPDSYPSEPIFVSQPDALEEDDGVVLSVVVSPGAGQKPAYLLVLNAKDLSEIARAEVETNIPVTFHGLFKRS
Test: In vivo murine isomerase assay (recovery of 11-cis-retinal after photobleaching)
Parameters: species or system CD-1 (albino) male mice
Conditions: for % Inhibition 1 mg/kg 4 h / % Inhibition 1 mg/kg 24 h / % Inhibition 5 mg/kg 4 h / % Inhibition 5 mg/kg 24 h: CD1 male mice; for % Inhibition 1 mg/kg 4 h / % Inhibition 1 mg/kg 24 h: single oral dose 1 mg/kg; for % Inhibition 1 mg/kg 4 h / % Inhibition 5 mg/kg 4 h: photobleaching 4 h post dosing; for % Inhibition 1 mg/kg 24 h / % Inhibition 5 mg/kg 24 h: photobleaching 24 h post dosing; for % Inhibition 5 mg/kg 4 h / % Inhibition 5 mg/kg 24 h: single oral dose 5 mg/kg; for ED50: mouse, po, read-out: ED50 (dose of compound that gives 50% inhibition of 11-cis retinal (oxime) recovery), CD-1 male mice, oral gavage, photobleached 4 hours after dosing
Description: The capability of amine derivative compounds to inhibit isomerase was determined by an in vivo murine isomerase assay. Brief exposure of the eye to intense light (“photobleaching” of the visual pigment or simply “bleaching”) is known to photo-isomerize almost all 11-cis-retinal in the retina. The recovery of 11-cis-retinal after bleaching can be used to estimate the activity of isomerase in vivo.
Delayed recovery, as represented by lower 11-cis-retinal oxime levels, indicates inhibition of isomerization reaction. Procedures were performed essentially as described by Golczak et al., Proc. Natl. Acad. Sci. USA 102:8162-67 (2005). See also Deigner et al., Science, 244: 968-71 (1989); Gollapalli et al., Biochim Biophys Acta. 1651: 93-101 (2003); Parish, et al., Proc. Natl. Acad. Sci. USA, 14609-13 (1998); Radu, et al., Proc Natl Acad Sci USA 101: 5928-33 (2004).
[…] Mice were orally gavaged with the several of the amine derivative compounds described herein. After 1-48 hours in the dark, the mice were exposed to photobleaching of 5,000 lux of white light for 10 minutes. The mice were allowed to recover 2 hours in the dark. The animals were then sacrificed by carbon dioxide inhalation. Retinoids were extracted from the eye and the regeneration of 11-cis-retinal was assessed at various time intervals.
All steps were performed in darkness with minimal redlight illumination (low light darkroom lights and redfiltered flashlights for spot illumination as needed) (see, e.g., Maeda et al., J. Neurochem 85:944-956, 2003; Van Hooser et al., J Biol Chem 277:19173-82, 2002). After the mice were sacrificed, the eyes were immediately removed and placed in liquid nitrogen for storage.
The eyes were placed in 500 μL of bis-tris propane buffer (10 mM, pH ˜7.3) and 20 μL of 0.8M hydroxylamine (pH˜7.3). The eyes were cut up into small pieces with small iris scissors and then thoroughly homogenized at 30000 rpm with a mechanical homogenizer (Polytron PT 1300 D) in the tube until no visible tissue remained. 500 μL of methanol and 500 μL of heptane were added to each tube. The tubes were attached to a vortexer so that the contents were mixed thoroughly for 15 minutes in room temperature. The organic phase was separated from the aqueous phase by centrifugation for 10 min at 13K rpm, 4° C. 240 μL of the solution from the top layer (organic phase) was removed and transferred to clean 300 μl glass inserts in HPLC vials using glass pipette and the vials were crimped shut tightly.
The samples were analyzed on an Agilent 1100 HPLC system with normal phase column: SILICA (Beckman Coutlier, dp 5 μm, […]). The running method has a flow rate of 1.5 ml/min; solvent components are 15% solvent 1 (1% isopropanol in ethyl acetate), and 85% solvent 2 (100% hexanes). Loading volume for each sample is 100 μl; detection wavelength is 360 nm. The area under the curve for 11-cis retinal oxime was calculated by Agilent Chemstation software and was recorded manually. Data processing was performed using Prizm software.
Positive control mice (no compound administered) were sacrificed fully dark-adapted and the eye retinoids analyzed. Light (bleached) control mice (no compound administered) were sacrificed and retinoids isolated and analyzed immediately after light treatment. The animals were orally gavaged with 1 mg/kg compound, then “photo-bleached” (5000 Lux white light for 10 minutes) at 4, 24 and 48 hours after dosing, and returned to darkness to allow recovery of the 11-cis-retinal content of the eyes. Mice were sacrificed 2 hours after bleaching, eyes were enucleated, and retinoid content was analyzed by HPLC.
A dose response in vivo isomerase inhibition study was performed with several of the amine derivative compounds described herein. Six-week old dark-adapted CD-1 (albino) male mice were orally gavaged with 0.03, 0.1, 0.3, 1 and 3 mg/kg of compound in sterile water as solution, and photobleached 4 hours after dosing. […]

Compound | % Inhibition 1 mg/kg 4 h | % Inhibition 1 mg/kg 24 h | other results
CCCC(O)(CCC)CCc1cccc(CCCN)c1 [Example 3, 4-(3-(3-aminopropyl)phenethyl)heptan-4-ol] | 36% | 13% | % Inhibition 5 mg/kg 4 h: 95%; % Inhibition 5 mg/kg 24 h: 0%; ED50 (estimated): 2 mg/kg
NCCCc1cccc(CCC2(O)CCCCC2)c1 [Example 7, 1-(3-(3-aminopropyl)phenethyl)cyclohexanol] | 23% | 12% | 
CCCC(O)(CCC)CCc1cccc(OCCN)c1 [Example 9, 4-(3-(2-aminoethoxy)phenethyl)heptan-4-ol] | 12% | 6% | 
NCCOc1cccc(CCC2(O)CCCCCC2)c1 [Example 10, 1-(3-(2-aminoethoxy)phenethyl)cycloheptanol] | 9% | 1% | 
NCCOc1cccc(CCC2(O)CCSCC2)c1 [Example 11, 4-(3-(2-aminoethoxy)phenethyl)tetrahydro-2H-thiopyran-4-ol] | 0% | 0% | 
NCCOc1cccc(CCC2(O)CCCCC2)c1 [Example 12, 1-(3-(2-aminoethoxy)phenethyl)cyclohexanol] | 27% | 12% | 
NCCC(O)c1cccc(CCC2(O)CCCCC2)c1 (stereo not drawn) [Example 15, 1-(3-(3-amino-1-hydroxypropyl)phenethyl)cyclohexanol] |  |  | ED50 (estimated): 2 mg/kg
NCCC(O)c1cccc(CCC2(O)CCCCCC2)c1 (stereo not drawn) [Example 16, 1-(3-(3-amino-1-hydroxypropyl)phenethyl)cycloheptanol] | 6% | 0% | 
NCCC(O)c1cccc(CCC2CCCC2)c1 (stereo not drawn) [Example 17, 3-amino-1-(3-(2-cyclopentylethyl)phenyl)propan-1-ol] | 84% | 0% | 
CCCC(O)(CCC)CCc1cccc(C(O)CCN)c1 (stereo not drawn) [Example 19, 4-(3-(3-amino-1-hydroxypropyl)phenethyl)heptan-4-ol] |  |  | Inhibition of recovery of 11-cis retinal (oxime), dose dependence (0.03-3 mg/kg oral, 4 hours post dosing): dose related; ED50 (dose of compound that gives 50% inhibition of 11-cis retinal (oxime) recovery) (CD-1 male mice, oral gavage, photobleached 4 hours after dosing, estimated): 0.65 mg/kg; ED50 (estimated): 0.651 mg/kg
NCCCc1cccc(CCC2(O)CCCCCC2)c1 [Example 20, 1-(3-(3-aminopropyl)phenethyl)cycloheptanol] | 0% | 2% | 
CCCCCc1cccc(CCCN)c1 [Example 27, 3-(3-pentylphenyl)propan-1-amine] | 6% | 29% | 
CC(C)(C)CCc1cccc(CCCN)c1 [Example 29, 3-(3-(3,3-dimethylbutyl)phenyl)propan-1-amine] | 0% | 0% | % Inhibition 5 mg/kg 4 h: 62%; % Inhibition 5 mg/kg 24 h: 0%; ED50 (estimated): 4 mg/kg
NCCCc1cccc(CCCCc2ccccc2)c1 [Example 35, 3-(3-(4-phenylbutyl)phenyl)propan-1-amine] | 0% |  | 

Source: US8450527B2, “Amine derivative compounds for treating ophthalmic diseases and disorders” (Acucela Inc., priority 2007, dated 2013)
